According to patent US20240261218A1, “BIODEGRADABLE MUCOADHESIVE PHARMACEUTICAL FORMULATIONS AND METHODS THEREOF” (THE TEXAS A&M UNIVERSITY SYSTEM, priority 2021, published 2024):
Values joined by “and” are separate entries in the source; they are usually repeats but may differ in a detail not shown here. Identical values can stand only once. “Also recorded” adds a separate entry of the source. Like-named read-outs stand apart in the source and are kept apart here. One block for each compound: values may come before it.

What was measured:
[1] = Plasma concentrations before the fifth dose in 4NQO-treated rats; format: in vivo, rat
[2] = In vivo active ingredient release: tongue tissue and plasma amounts in healthy rats; design: species or system rat
Description: The instant example analyzes exemplary pharmaceutical formulations applied to the tongue of healthy rats for different time periods up to 4 hours. Concentrations of mycophenolic acid and oxaliplatin in tongue tissues were measured at the corresponding times and up to 12 hours from the beginning of the formulation application in rats. The following are groups of rats that were studied: • Group #1: Formulation applied for 0.5 hour and rat tongues were harvested for drug analysis. N=8 rats. • Group #2: Formulation applied for 1 hour and rat tongues were harvested for drug analysis. N=13 rats. • Group #3: Formulation applied for 2 hours and rat tongues were harvested for drug analysis. N=13 rats. • Group #4: Formulation applied for 3 hours and rat tongues were harvested for drug analysis. N=12 rats. • Group #5: Formulation applied for 4 hours and rat tongues were harvested for drug analysis. N=6 rats. • Group #6: Formulation applied for 4 hours and removed from the rat. At 8 hours after the start of the Formulation application, rat tongues were harvested for drug analysis. N=7 rats. • Group #7: Formulation applied for 4 hours and removed from the rat. At 12 hours after the start of the Formulation application, rat tongues were harvested for drug analysis. N=9 rats.
• 1. Animal care and treatment. […] Combination index (CI) and isoborogram. […] Pharmaceutical formulation.

[3] = tested on: Dysplastic oral keratinocyte (DOK) cells; assay: MTT growth inhibition (IC50) in DOK cells; format: cell-based; details: MTT assay; for IC50: read-out: IC50 concentration
Text: • 1. Animal care and treatment. […] Combination index (CI) and isoborogram. […] Pharmaceutical formulation. […] LC-MS/MS.

[4] = Stability of OXP in solutions; format: physicochemical
Text: These chloride derivatives of OXP are not detectable by current available assays.

plasma concentration of MPS right before the placement of the last (fifth) formulation, group value ([1]; group treated with OXP-MPS formulations, 2 hours × 5 days): 4.52 (+2.23) ng/ml
MPS detected in rat tongue as % of the formulation drug load ([2]; 0.5 hour supra-lingual application): about 55%
plasma MPS concentrations ([2]; all groups): less than 10 ng/mL
concentration at 8 h ([2]; male, Sprague-Dawley, rat, plasma, healthy rats, applied 4 hours, sampled 4 hours after removal (8 hours from beginning), mean ± SD): 6.5 ± 1.3 ng/mL
concentration at 12 h ([2]; male, Sprague-Dawley, rat, plasma, healthy rats, applied 4 hours, sampled 8 hours after removal (12 hours from beginning), mean ± SD): 4.26 ± 0.71 ng/mL
concentration at 1 h ([2]; male, Sprague-Dawley, rat, plasma, healthy rats, supra-lingual formulation, 1 hour of application, mean ± SD): 0.96 ± 0.26 ng/mL
concentration at 2 h ([2]; male, Sprague-Dawley, rat, plasma, healthy rats, supra-lingual formulation, 2 hours of application, mean ± SD): 2.09 ± 0.76 ng/mL
concentration at 3 h ([2]; male, Sprague-Dawley, rat, plasma, healthy rats, supra-lingual formulation, 3 hours of application, mean ± SD): 2.76 ± 0.68 ng/mL
concentration at 4 h ([2]; male, Sprague-Dawley, rat, plasma, healthy rats, supra-lingual formulation, 4 hours of application, mean ± SD): 1.76 ± 0.53 ng/mL
SMILES: COc1c(C)c2c(c(O)c1C/C=C(\C)CCC(=O)O)C(=O)OC2 [MPS, mycophenolate]
Plasma concentration of mycophenolate immediately before the fifth dose application ([1]; 4NQO induced rats, daily 2-hours supra-lingual formulation (9,040 ng MPS, 680 ng OXP), individual rats, steady-state trough): 8.24 ng/mL and 6.84 ng/mL and 3.83 ng/mL and 2.54 ng/mL and 4.82 ng/mL and 2.37 ng/mL and 5.18 ng/mL

SMILES: CC(=O)O[C@H]1C(=O)[C@@]2(C)[C@H]([C@H](OC(=O)c3ccccc3)[C@]3(O)C[C@H](OC(=O)[C@H](O)[C@@H](NC(=O)c4ccccc4)c4ccccc4)C(C)=C1C3(C)C)[C@]1(OC(C)=O)CO[C@@H]1C[C@@H]2O [paclitaxel]
IC50 ([3]; Keratinocyte): 0.41 nM

SMILES: COc1c(C)c2c(c(O)c1C/C=C(\C)CCC(=O)O)C(=O)OC2 [MPA]
IC50 ([3]; Keratinocyte): 13300 nM

SMILES: O=C1[O][Pt]2([NH][C@@H]3CCCC[C@H]3[NH]2)[O]C1=O (relative stereo) [OXP, [SP-4-2-(1R-trans)]-(1,2-cyclohexanediamine-N,N′)[ethanedioato(2-)-O,O′]platinum]
IC50 [3]: 1670 nM
Plasma concentration of oxaliplatin immediately before the fifth dose application ([1]; 4NQO induced rats, daily 2-hours supra-lingual formulation (9,040 ng MPS, 680 ng OXP)): not detectible
Plasma concentration of oxaliplatin immediately before the fifth dose application ([1]; 4NQO induced rats, daily 2-hours supra-lingual formulation (9,040 ng MPS, 680 ng OXP), listed as oxaliplatin): No detectable levels; also recorded: Not detectible (ND)
stability of OXP in chloride-containing solutions ([4]; NaCl (0.9%, 3%), KCl (3%)): converted by chloride in a time and concentration-dependent manner
stability of OXP in NaPi, glucose, or H2O solutions and solutions containing the bioadhesive material components ([4]; NaPi 0.2M, glucose 5%, H2O, PAA, DOPA, CMC): remains stable
oxaliplatin in rat tongue as % of the formulation active ingredient load ([2]; 0.5-hour formulation application group): about 21%
oxaliplatin in plasma ([2]; any groups): no detectable oxaliplatin in plasma

SMILES: O=c1[nH]cc(F)c(=O)[nH]1 [5-FU]
IC50 concentration [3]: 3.33 µg/mL
